Reference: patent US20220235011A1, “PHTHALAZINONE COMPOUNDS AND USE THEREOF” (ST PHARM CO., LTD., priority 2019, published 2022)
Where a name gives a salt, the structure may show the parent alone.

Target: T1, Sirt6 (Homo sapiens, UniProt Q8N6T7)
T1 construct: purchased CycLex CY-1156V2
Assay: Measurement of Sirt6 Activity (CycLex Sirt6 Deacetylase Fluorometric Assay Kit)
Assay type: biochemical
Settings: compound at 10 μM; fluorescence relative to the group without compound treatment (positive control group)
Procedure, shortened: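 Recombinant Sirt6 with fluoro-labelled acetyl-lysine peptide, NAD and lysylendopeptidase developer, compound added from 10× stock in PBS; 1 h at room temperature. Fluorescence read at ex 490/em 530 nm; activation expressed as fluorescence ratio relative to enzyme without compound.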

T1 sequence (Q8N6T7 whole entry): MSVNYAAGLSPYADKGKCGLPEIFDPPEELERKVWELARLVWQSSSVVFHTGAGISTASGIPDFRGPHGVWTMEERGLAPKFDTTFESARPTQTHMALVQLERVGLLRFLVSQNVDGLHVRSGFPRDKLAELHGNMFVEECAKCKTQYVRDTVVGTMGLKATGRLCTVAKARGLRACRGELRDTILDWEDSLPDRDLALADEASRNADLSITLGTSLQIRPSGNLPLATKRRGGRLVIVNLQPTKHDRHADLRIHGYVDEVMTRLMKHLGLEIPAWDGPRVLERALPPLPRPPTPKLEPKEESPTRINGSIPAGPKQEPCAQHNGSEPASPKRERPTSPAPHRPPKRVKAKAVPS

| Sirt6 Activity (% activity, 10 μM) [% activity] | Compound |
| --- | --- |
| 116 | CNS(=O)(=O)c1cccc(-c2nn(-c3ccccc3)c(=O)c3cc(F)ccc23)c1 [Example 113, 3-(6-Fluoro-4-oxo-3-phenyl-3,4-dihydrophthalazin-1-yl)-N-methylbenzenesulfonamide] |
| 114 | CS(=O)(=O)N(c1cc(-c2nn(-c3ccccc3)c(=O)c3ccccc23)ccc1Cl)S(C)(=O)=O [Example 18, N-(2-Chloro-5-(4-oxo-3-phenyl-3,4-dihydrophthalazin-1-yl)phenyl)-N-(methylsulfonyl)methane-sulfonamide] |
| 176 | Nc1cccc(-c2nn(-c3ccc(F)cc3)c(=O)c3ccccc23)c1 [Example 60, 4-(3-Aminophenyl)-2-(4-fluorophenyl) phthalazin-1(2H)-one] |
| 135.2 | Cl.N[C@H]1CCCN(c2nn(C3CCCCC3)c(=O)c3ccccc23)C1 [Example 146, (S)-4-(3-Aminopiperidin-1-yl)-2-cyclohexylphthalazin-1(2H)-one-hydrochloride] |
| 216 | CNS(=O)(=O)N(C)c1cccc(-c2nn(-c3ccc(F)cc3)c(=O)c3ccccc23)c1 [Example 80, N-(3-(3-(4-Fluorophenyl)-4-oxo-3,4-dihydrophthalazin-1-yl)phenyl)-N-methyl-methyl Sulfamoylamide] |
| 174.93 | CCS(=O)(=O)NC1CCCN(c2nn(-c3ccc(F)cc3)c(=O)c3ccccc23)C1 (stereo not shown) [Example 135, N-(1-(3-(4-Fluorophenyl)-4-oxo-3,4-dihydrophthalazin-1-yl)piperidin-3-yl)ethanesulfonamide] |
| 244.1 | Cl.N[C@H]1CCCCN(c2nn(-c3ccc(F)cc3F)c(=O)c3ccccc23)C1 [Example 157, (S)-4-(3-Aminoazepan-1-yl)-2-(2,4-difluorophenyl)phthalazin-1(2H)-one-hydrochloride] |
| 113 | O=c1c2ccccc2c(-c2cccc(/C=[N+](\[O-])Cc3ccccc3)c2)nn1-c1ccccc1 [Example 35, (Z)—N-Benzyl-1-(3-(4-oxo-3-phenyl-3,4-dihydrophthalazin-1-yl)phenyl)methanimine Oxide] |
| 233.90 | O=c1c2ccccc2c(-c2cccc(S(=O)(=O)N3CCCC3)c2)nn1-c1ccc(F)cc1F [Example 214, 2-(2,4-Difluorophenyl)-4-(3-(pyrrolidin-1-ylsulfonyl)phenyl)phthalazin-1(2H)-one] |
| 172 | CC(C)(C)/[N+]([O-])=C/c1cc(-c2nn(-c3ccc(F)cc3)c(=O)c3ccccc23)ccc1F [Example 53, (Z)—N-tert-Butyl-1-(2-fluoro-5-(3-(4-fluorophenyl)-4-oxo-3,4-dihydrophthalazin-1-yl)phenyl) Methanimine Oxide] |
| 153.60 | CC(C)(C(N)=O)c1cccc(-c2nn(-c3ccc(Cl)cc3)c(=O)c3ccccc23)c1 [Example 197, 2-(3-(3-(4-Chlorophenyl)-4-oxo-3,4-dihydrophthalazin-1-yl)phenyl)-2-methylpropanamide] |
| 102 | CCNc1cccc(-c2nn(-c3ccc(C(F)(F)F)cc3)c(=O)c3ccccc23)c1 [Example 4, 4-(3-(Ethylamino)phenyl)-2-(4-(trifluoro-methyl)phenyl)phthalazin-1(2H)-one] |
| 196 | CNS(=O)(=O)c1cccc(-c2nn(-c3ccc(F)cc3)c(=O)c3ccccc23)c1 [Example 86, 3-(3-(4-Fluorophenyl)-4-oxo-3,4-dihydrophthalazin-1-yl)-N-methylbenzenesulfonamide] |
| 117.30 | O=C(O)C1(c2cccc(-c3nn(-c4ccc(F)cc4F)c(=O)c4ccccc34)c2)CCCC1 [Example 208, 1-(3-(3-(2,4-Difluorophenyl)-4-oxo-3,4-dihydrophthalazin-1-yl)phenyl)cyclopentane-1-carboxylic Acid] |
| 273.70 | CN[C@@H]1CCCCN(c2nn(-c3ccc(F)cc3F)c(=O)c3ccccc23)C1 [Example 189, (R)-2-(2,4-Difluorophenyl)-4-(3-(methylamino)azepan-1-yl)phthalazin-1(2H)-one-hydrochloride] |
| 227 | CN(C)S(=O)(=O)c1cccc(-c2nn(-c3ccc(F)cc3F)c(=O)c3ccccc23)c1 [Example 93, 3-(3-(2,4-Difluorophenyl)-4-oxo-3,4-dihydrophthalazin-1-yl)-N,N-dimethylbenzene Sulfonamide] |
| 289.8 | CC(C)(C(=O)O)c1cccc(-c2nn(C3CCCCC3)c(=O)c3ccccc23)c1 [Example 160, 2-(3-(3-Cyclohexyl-4-oxo-3,4-dihydrophthalazin-1-yl)phenyl)-2-methylpropanoic Acid] |
| 115 | O=c1c2ccccc2c(-c2cccc(-c3nnn[nH]3)c2)nn1-c1ccc(F)cc1 [Example 81, 4-(3-(1H-Tetrazol-5-yl)phenyl)-2-(4-fluorophenyl)phthalazin-1(2H)-one] |
| 120 | CN(C)S(=O)(=O)Nc1cc(-c2nn(-c3ccccc3)c(=O)c3ccccc23)ccc1Cl [Example 19, N-(3-(3-(Phenyl)-4-oxo-3,4-dihydrophthalazin-1-yl)-6-chlorophenyl)dimethyl Sulfamoylamide] |
| 107.58 | CCS(=O)(=O)Nc1cccc(-c2nn(C(C)C)c(=O)c3ccccc23)c1 [Example 132, N-(3-(3-Isopropyl-4-oxo-3,4-dihydrophthalazin-1-yl)phenyl)ethanesulfonamide] |
| 107 | COc1ccc(-c2nn(-c3ccc(F)cc3)c(=O)c3ccccc23)cc1/C=[N+](\[O-])C(C)(C)C [Example 49, (Z)—N-tert-Butyl-1-(5-(3-(4-fluorophenyl)-4-oxo-3,4-dihydrophthalazin-1-yl)-2-methoxyphenyl)methan Imine Oxide] |
| 225.40 | NC(=O)C1(c2cccc(-c3nn(-c4ccc(Cl)cc4)c(=O)c4ccccc34)c2)CC1 [Example 198, 1-(3-(3-(4-Chlorophenyl)-4-oxo-3,4-dihydrophthalazin-1-yl)phenyl)cyclopropan-1-carboxyamide] |
| 280.4 | CNC(=O)C(C)(C)c1cccc(-c2nn(-c3ccc(F)cc3)c(=O)c3ccccc23)c1 [Example 153, 2-(3-(3-(4-Fluorophenyl)-4-oxo-3,4-dihydrophthalazin-1-yl)phenyl)-N,2-dimethylpropanamide] |
| 195 | C/[N+]([O-])=C/c1ccc(-c2nn(-c3ccc(F)cc3)c(=O)c3ccccc23)s1 [Example 45, (Z)-1-(5-(3-(4-Fluorophenyl)-4-oxo-3,4-dihydrophthalazin-1-yl)thiophen-2-yl)-N-methylmethanimine Oxide] |

Same assay, conditions: compound at 10 μM; fluorescence relative to the group without compound treatment (positive control group); 10 µM

| Sirt6 Activity (% activity, 10 μM) [% activity] | Compound |
| --- | --- |
| 207 | CC(C)/[N+]([O-])=C/c1cccc(-c2nn(-c3ccc(F)cc3)c(=O)c3ccccc23)c1 [Example 17, (Z)-1-(3-(3-(4-Fluorophenyl)-4-oxo-3,4-dihydrophthalazin-1-yl)phenyl)-N-isopropylmethanimine Oxide] |
